From patent US20260266848A1, “COMPOSITIONS AND METHODS FOR DIAGNOSING AND TREATING DYSTONIA” (Duke University, priority 2023, published 2026) come the findings set out here.

For one data set, the system named is DYT-TOR1A MEF EVs. Put plainly: Quantitative LC-MS/MS proteomics of EVs from drug-treated DYT-TOR1A MEF cultures (ritonavir, salubrinal). The data set is classed as cell-based, mouse. More on the design: key to RTV Corrective Direction / RTV Corrective Direction, Grwd1 / RTV Corrective Direction, Srrm2 / RTV Corrective Direction, Rbm17 / RTV Corrective Direction, Dcaf8 / RTV Corrective Direction, Edil3 / RTV Corrective Direction, Timp3 / RTV Corrective Direction, Heatr3 / RTV Corrective Direction, Brd4 / RTV Corrective Direction, P3h4 / RTV Corrective Direction, Pacsin3 / RTV Corrective Direction, Naa50 / RTV Corrective Direction, Lpar6 / RTV Corrective Direction, Ndrg1 / RTV Corrective Direction, Kntc1 / RTV Corrective Direction, Cdk11b / RTV Corrective Direction, Sumo1 / RTV Corrective Direction, Lsm4 / RTV Corrective Direction, Hmga2 / RTV Corrective Direction, Cstf1 / RTV Corrective Direction, Tes / RTV Corrective Direction, Sbno1 / RTV Corrective Direction, Unc119b / RTV Corrective Direction, Cfdp1 / RTV Corrective Direction, Sec61b: YES = protein abundance effect opposite to DYT/WT. The conditions noted are these: EV protein abundance; for RTV Corrective Direction: DYT + RTV (ritonavir) vs DYT, direction compared with DYT/WT; for DYT + RTV/DYT Cohen's d: ritonavir (RTV)-treated DYT vs DYT.

A further data set concerns WT MEF EVs. Put plainly: Quantitative LC-MS/MS proteomics of EVs from ISRIB-treated WT MEF cultures. Type of data set: cell-based, mouse. Also noted: key to ISRIB and DYT Parallel Direction / ISRIB and DYT Parallel Direction, Ctdsp1 / ISRIB and DYT Parallel Direction, Pcdh19 / ISRIB and DYT Parallel Direction, Tspan7 / ISRIB and DYT Parallel Direction, Myo1e / ISRIB and DYT Parallel Direction, Plpp3 / ISRIB and DYT Parallel Direction, Sh3bp4 / ISRIB and DYT Parallel Direction, Dnajc7 / ISRIB and DYT Parallel Direction, Drg1 / ISRIB and DYT Parallel Direction, Maea: YES = protein abundance effect similar to DYT/WT. The conditions noted are these: EV protein abundance; for WT + ISRIB/WT Cohen's d: ISRIB-treated WT vs WT; for ISRIB and DYT Parallel Direction: WT + ISRIB vs WT, direction compared with DYT/WT.

The subject of data set [1] is DYT1 patient plasma derived EVs. Put plainly: Plasma-derived EV proteomics (ExoQuick ULTRA, DIA LC/MS/MS), DYT1 vs Healthy Controls. Also noted: species or system human. As to conditions: Hs. Plasma EVs (DYT1/WT); significance of genotype difference. On the procedure:
Data was obtained for extracellular vesicles using previously acquired samples. The ExoQuick® ULTRA EV Isolation System was used to fractionate and enrich EVs from plasma. Isolated plasma EV samples were then submitted to proteomic analysis by the Duke Proteomics and Metabolomics Core Facility (DPMCF). At the DPMCF, quantitative (LC/MS/MS) was performed on 500 ng of each sample, using an EvoSep One UPLC system coupled to a Thermo Orbitrap Astral high-resolution accurate mass tandem mass spectrometer (Thermo). Briefly, the sample was eluted directly from an Evotip which was subjected to a low organic wash and then subjected to an analytical separation using a 1.7 μm EvoSep 150 um ID×15 cm endurance (EveoSep) column running an SPD30 gradient from approximately 5 to 30% acetonitrile with 0.1% formic acid with a column temperature of 50 C. Data collection on the Orbitrap Astral mass spectrometer was performed in a data-independent acquisition (DIA) mode of acquisition with a r=240,000 (@m/z 200) full MS scan from m/z 380-980 with a target AGC value of 4e5 ions. Fixed DIA, windows of 4 m/z from m/z 380 to 980 DIA MS/MS scans were acquired in the Astral with a target AGC value of 5e4 and a max fill time of 6 ms. HCD collision energy setting of 27% was used for all MS2 scans.

On to Notch3, for which, in the data set with DYT-TOR1A MEF EVs, the “RTV Corrective Direction” value is recorded as “YES” and the “DYT + RTV/DYT Cohen's d” value is on record as −2.22. In addition, in the data set with WT MEF EVs, the “WT + ISRIB/WT Cohen's d” value is on record as 0.52; the “ISRIB and DYT Parallel Direction” value is on record as “YES”.
Consider DLST, for which, in data set [1], the “-LogP” value is on record as 1.928.
In the case of Hmcn1, in the data set with DYT-TOR1A MEF EVs, the “RTV Corrective Direction” value was “YES” and the “DYT + RTV/DYT Cohen's d” value was −3.58. The “WT + ISRIB/WT Cohen's d” value in the data set on WT MEF EVs is reported as −2.25.
As to Myo18a, in the data set on DYT-TOR1A MEF EVs, the “RTV Corrective Direction” value is “YES” and the “DYT + RTV/DYT Cohen's d” value is listed as 4.91. In addition, in the data set on WT MEF EVs, the “WT + ISRIB/WT Cohen's d” value came out at 2.27.
In the case of PI4KA, in data set [1], the “-LogP” value came to 2.66.
Turning to Prpf8, in the data set with DYT-TOR1A MEF EVs, the “RTV Corrective Direction” value is “YES” and the “DYT + RTV/DYT Cohen's d” value was 7.95. In the data set on WT MEF EVs, the “WT + ISRIB/WT Cohen's d” value is listed as −0.01; the “ISRIB and DYT Parallel Direction” value was “YES”.
Regarding MAPK3, the “-LogP” value in data set [1] worked out at 1.682.
For the substance lgf1r, in the data set on DYT-TOR1A MEF EVs, the “RTV Corrective Direction” value is given as “YES” and the “DYT + RTV/DYT Cohen's d” value came out at 0.63. Besides, the “WT + ISRIB/WT Cohen's d” value with WT MEF EVs turned out to be 0.75.
Regarding Ddx39b, in the data set with DYT-TOR1A MEF EVs, the “RTV Corrective Direction” value is reported as “YES” and the “DYT + RTV/DYT Cohen's d” value is 13.79. Besides, in the data set with WT MEF EVs, the “WT + ISRIB/WT Cohen's d” value was −1.12; the “ISRIB and DYT Parallel Direction” value is “YES”.
On to Sptan1, for which, in the data set with DYT-TOR1A MEF EVs, the “RTV Corrective Direction” value is on record as “YES” and the “DYT + RTV/DYT Cohen's d” value amounted to 3.22. In the data set with WT MEF EVs, the “WT + ISRIB/WT Cohen's d” value is listed as −0.40; the “ISRIB and DYT Parallel Direction” value is “YES”.
As for TGFB2, in data set [1], the “-LogP” value amounted to 2.018.
Turning to Ptprs, in the data set on DYT-TOR1A MEF EVs, the “RTV Corrective Direction” value was “YES” and the “DYT + RTV/DYT Cohen's d” value was −5.40. Moreover, in the data set with WT MEF EVs, the “WT + ISRIB/WT Cohen's d” value was 0.13; the “ISRIB and DYT Parallel Direction” value is “YES”.
On to RHOA, for which, in data set [1], the “-LogP” value is given as 1.674.
As to Ltbp1, in the data set on DYT-TOR1A MEF EVs, the “RTV Corrective Direction” value is listed as “YES” and the “DYT + RTV/DYT Cohen's d” value is −3.08. Besides, in the data set on WT MEF EVs, the “WT + ISRIB/WT Cohen's d” value is on record as 2.17; the “ISRIB and DYT Parallel Direction” value is given as “YES”.
In the case of TARDBP, the “-LogP” value in data set [1] turned out to be 1.352.
Consider Gmppb, for which, in the data set on DYT-TOR1A MEF EVs, the “RTV Corrective Direction” value was “YES” and the “DYT + RTV/DYT Cohen's d” value is given as 5.38. For the same substance, in the data set with WT MEF EVs, the “WT + ISRIB/WT Cohen's d” value is listed as −2.41; the “ISRIB and DYT Parallel Direction” value is “YES”.
As to Hdgf, in the data set with DYT-TOR1A MEF EVs, the “RTV Corrective Direction” value is on record as “YES” and the “DYT + RTV/DYT Cohen's d” value is given as −0.15. In the data set with WT MEF EVs, the “WT + ISRIB/WT Cohen's d” value was found to be 1.97; the “ISRIB and DYT Parallel Direction” value is listed as “YES”.
Turning to Sar1a, in the data set on DYT-TOR1A MEF EVs, the “RTV Corrective Direction” value was “YES” and the “DYT + RTV/DYT Cohen's d” value amounted to 4.40. Further, in the data set with WT MEF EVs, the “WT + ISRIB/WT Cohen's d” value is reported as −1.23; the “ISRIB and DYT Parallel Direction” value is reported as “YES”.
Turning to Idh2, in the data set on DYT-TOR1A MEF EVs, the “RTV Corrective Direction” value is “YES” and the “DYT + RTV/DYT Cohen's d” value is reported as 23.61. Further, in the data set on WT MEF EVs, the “WT + ISRIB/WT Cohen's d” value is −2.01; the “ISRIB and DYT Parallel Direction” value is on record as “YES”.
Consider Nes, for which the “DYT + RTV/DYT Cohen's d” value in the data set with DYT-TOR1A MEF EVs is reported as 0.37. In the data set on WT MEF EVs, the “WT + ISRIB/WT Cohen's d” value came out at 2.29; the “ISRIB and DYT Parallel Direction” value is “YES”.
With PSME4, the “-LogP” value in data set [1] was found to be 1.398.
For the substance FLNA, the “-LogP” value in data set [1] is listed as 1.743.
Dhx9: in the data set on DYT-TOR1A MEF EVs, the “RTV Corrective Direction” value is given as “YES” and the “DYT + RTV/DYT Cohen's d” value was determined as 6.23. Besides, in the data set with WT MEF EVs, the “WT + ISRIB/WT Cohen's d” value is reported as −1.27; the “ISRIB and DYT Parallel Direction” value was “YES”.
As to Nrbp1, in the data set with DYT-TOR1A MEF EVs, the “RTV Corrective Direction” value is reported as “YES” and the “DYT + RTV/DYT Cohen's d” value is listed as 6.35. For the same substance, the “WT + ISRIB/WT Cohen's d” value in the data set with WT MEF EVs was found to be 0.18.
